# Laboratory results from US20050009837A1, “Modulators of lipid metabolism and methods of use” (City of Hope, priority 2003, published 2005).
# Experiments:
# [1] = tested on: SRE reporter (FAS proximal promoter); test: SRE reporter (FAS proximal promoter-luciferase) assay in CV-1 cells; assay type: cell-based
# Procedure: Since LXR regulates SREBP-1c expression, LXR also should regulate activities downstream of SREBP-1c. To test this, CV-1 cells were transiently transfected with as in Example 6, but with the SRE or the SREm reporter, SREBP-1c-dependent reporter constructs consisting of the FAS proximal promoter linked to the luciferase gene. […] See Wang et al., Mol. Cell 3:543-553, 1999, the disclosures of which are hereby incorporated by reference. Cells then were treated as in Example 6 with the indicated compounds, Clotrimazole or 25-hydroxycholesterol (25-OH cholesterol). 25-OH cholesterol is known to repress the synthesis of SREBP-1c and is therefore used to eliminate the effects of this transcription factor on the FAS promoter (SRE).
# human LXRα = target: T1, human LXRα (Homo sapiens, UniProt Q13133); test: Full-length hLXRα/hRXRα LXREx3 TK-Luc reporter assay in transfected CV-1 cells; assay type: cell-based; details: 20 μM, 40 hours
# T1 construct: expressed in transfected cells; host or cells: CV-1 cells
# T1 sequence (Q13133 1-447): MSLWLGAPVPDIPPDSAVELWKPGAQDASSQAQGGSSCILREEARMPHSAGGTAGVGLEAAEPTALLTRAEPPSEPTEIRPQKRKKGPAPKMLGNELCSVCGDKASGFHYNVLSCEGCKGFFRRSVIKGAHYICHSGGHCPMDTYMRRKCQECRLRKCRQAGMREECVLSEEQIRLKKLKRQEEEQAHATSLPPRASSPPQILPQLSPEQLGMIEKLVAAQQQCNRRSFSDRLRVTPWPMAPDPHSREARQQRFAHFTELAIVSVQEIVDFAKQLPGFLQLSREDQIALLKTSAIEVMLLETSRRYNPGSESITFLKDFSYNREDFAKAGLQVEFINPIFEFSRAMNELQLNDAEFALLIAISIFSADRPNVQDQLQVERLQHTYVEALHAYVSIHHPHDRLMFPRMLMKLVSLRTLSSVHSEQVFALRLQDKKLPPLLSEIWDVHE
# T1 sequence (P19793 1-462 partner): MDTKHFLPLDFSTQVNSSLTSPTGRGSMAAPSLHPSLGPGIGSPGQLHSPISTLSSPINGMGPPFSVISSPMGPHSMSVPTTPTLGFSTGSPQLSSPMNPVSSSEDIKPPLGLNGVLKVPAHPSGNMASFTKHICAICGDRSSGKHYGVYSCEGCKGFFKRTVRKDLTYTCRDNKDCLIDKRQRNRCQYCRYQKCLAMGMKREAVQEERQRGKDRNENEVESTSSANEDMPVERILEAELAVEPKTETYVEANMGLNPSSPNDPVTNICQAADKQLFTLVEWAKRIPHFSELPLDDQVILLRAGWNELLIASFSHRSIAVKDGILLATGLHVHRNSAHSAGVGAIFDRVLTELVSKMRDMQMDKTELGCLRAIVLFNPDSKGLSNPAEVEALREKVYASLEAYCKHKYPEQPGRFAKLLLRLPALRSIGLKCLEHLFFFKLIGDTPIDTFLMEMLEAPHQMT
# Procedure: (§1) CV-1 cells were grown in DMEM supplemented with 10% resin-charcoal stripped fetal bovine serum, 50 U/ml penicillin G and 50 μg/ml streptomycin sulfate at 37° C. in 5% CO2. Cells were plated to 50-80% confluence one day prior to transfection using phenol red-free DMEM-FBS. The cells were transfected by lipofection using N-[1-(2,3-dioleoyloxy)propyl]-N,N,N-ammonium methyl sulfate according to manufacturer's instructions (Boehringer Mannheim).
# (§2) Genes encoding the following full-length proteins, which are suitable for use in the studies described herein, were cloned into pCMX: human RXRα (Gene Bank accession X52773) and human LXRα (GenBank accession U22662). The cells were transfected with CMX-βgal and luciferase constructs. The CMX-βGal construct contained the ligand binding domain of human RXR (hRXRα) and the ligand binding domain of human LXRα (hLXRα) as indicated in FIG. 1. The luciferase reporter construct (LXREx3 TK-Luc) contained the herpes virus thymidine kinase promoter (−105/+51) linked to three copies of the response element LXRE. After transfection, the cells were treated with 20 μM of a synthetic azole test compound or vehicle alone for 40 hours in phenol red-free DMEM-FBS.
# [2] = target: T2, ligand binding domain of LXRα-RXR heterodimers (Homo sapiens, UniProt Q13133); test: LXR ligand binding domain mediated activity, UASGx4 TK-Luc reporter in CV-1 cells; assay type: cell-based; details: 20 μM
# T2 construct: expressed in transfected cells; host or cells: CV-1 cells
# T2 sequence (Q13133 209-447 limits assumed): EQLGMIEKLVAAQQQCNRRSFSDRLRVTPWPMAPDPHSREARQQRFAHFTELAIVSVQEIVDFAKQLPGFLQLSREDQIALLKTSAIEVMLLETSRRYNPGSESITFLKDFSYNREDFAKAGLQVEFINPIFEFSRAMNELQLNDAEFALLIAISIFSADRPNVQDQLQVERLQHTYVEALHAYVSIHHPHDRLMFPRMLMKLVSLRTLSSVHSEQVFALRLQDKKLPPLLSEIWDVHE
# T2 sequence (P19793 227-458 partner limits assumed): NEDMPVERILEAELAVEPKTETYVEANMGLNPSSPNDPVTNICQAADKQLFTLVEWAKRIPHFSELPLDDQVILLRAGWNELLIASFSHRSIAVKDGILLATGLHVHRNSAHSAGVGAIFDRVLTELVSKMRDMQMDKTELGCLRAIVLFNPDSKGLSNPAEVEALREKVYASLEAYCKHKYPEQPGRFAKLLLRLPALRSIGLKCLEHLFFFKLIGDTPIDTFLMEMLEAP
# Procedure: as §1
# as §2, with “DMEM-FBS. After exposure to the candidate antagonist compounds, cells were harvested and assayed for luciferase and β-galactosidase activity.” for “DMEM-FBS.”
# The reporter gene was UASGx4 TK-Luc.
# [3] = target: T3, LXRα-RXR heterodimers and receptor interaction domains of coactivator SRC1 (Homo sapiens, UniProt Q13133); test: LXR-coactivator association, VP-L-hLXRα / L-hRXRα / GAL4-SRC1 in CV-1 cells; assay type: cell-based; details: 20 μM, coactivator GAL4-SRC1, CV-1 cells
# T3 construct: expressed in transfected cells; host or cells: CV-1 cells
# T3 sequence (Q13133 209-447 limits assumed): T2 sequence (Q13133 209-447 limits assumed)
# T3 sequence (P19793 227-458 partner limits assumed): T2 sequence (P19793 227-458 partner limits assumed)
# Procedure: as §1, §2
# VP-L-hLXRα contains the transactivation domain of Herpes VP16, linked to the LBD of human LXRα, L-hRXRα is the LBD of human RXRα. UASGx4 TK-Luc was the reporter gene, and the assay additionally included the coactivator GAL4-SRC1. Treatment with 20 μM azole compound as indicated was able to inhibit interactions between LXRα-RXR heterodimers and the receptor interaction domains from the coactivator SRC1.
# LXRα = target: T4, LXRα (Homo sapiens, UniProt Q13133); test: Transient transfection assay Gal-hLXRα + RXR LBD, UASGx4 TK Luc reporter, CV-1 cells; assay type: cell-based; details: 10 μM; for repression of LXRα activity: approximately 40 hours, lipid-stripped serum; for less effective than Clotrimazole in repressing LXRα: relative to Clotrimazole
# T4 construct: expressed in transfected cells; host or cells: CV-1 cells
# T4 sequence (Q13133 209-447 limits assumed): T2 sequence (Q13133 209-447 limits assumed)
# T4 sequence (P19793 227-458 partner limits assumed): T2 sequence (P19793 227-458 partner limits assumed)
# Procedure: (§3) Synthetic compounds were screened in an effort to find more specific LXR inhibitors. CV-1 cells were maintained and transfected using known methods. Forman et al., Cell 81: 687-693, 1995. CV-1 cells were transiently transfected with Gal-hLXRα, the RXR LBD, the UASGx4 TK Luc reporter and CMX-β-gal as an internal control, either in standard or in lipid-stripped serum. After transfection, cells were treated for approximately 40 hours with phenol red-free DMEM-FBS containing the indicated compounds at the following concentrations: T0901317 (100 nM), Clotrimazole (10 μM), S883417(10 μM) and S100250 (10 μM), unless otherwise specified. After exposure to ligand, the cells were harvested and assayed for luciferase and β-galactosidase activity. The luciferase activity was normalized to the internal β-galactosidase control (reporter activity).
# (§4) The ability of these compounds to repress LXRα and LXRβ was compared by transfecting CV-1 cells with either the RXR LBD alone or the RXR LBD together with either Gal-LXRα or Gal-LXRβ.
# (§5) Transfections were performed as described above, with increasing concentrations of Clotrimazole.
# LXRβ = target: T5, LXRβ (Homo sapiens, UniProt P55055); test: Transient transfection assay Gal-LXRβ + RXR LBD, UASGx4 TK Luc reporter, CV-1 cells; assay type: cell-based; details: 10 μM; for repression of LXRβ activity: approximately 40 hours, lipid-stripped serum; for less effective than Clotrimazole in repressing LXRβ: relative to Clotrimazole
# T5 construct: expressed in transfected cells; host or cells: CV-1 cells
# T5 sequence (P55055 222-460 limits assumed): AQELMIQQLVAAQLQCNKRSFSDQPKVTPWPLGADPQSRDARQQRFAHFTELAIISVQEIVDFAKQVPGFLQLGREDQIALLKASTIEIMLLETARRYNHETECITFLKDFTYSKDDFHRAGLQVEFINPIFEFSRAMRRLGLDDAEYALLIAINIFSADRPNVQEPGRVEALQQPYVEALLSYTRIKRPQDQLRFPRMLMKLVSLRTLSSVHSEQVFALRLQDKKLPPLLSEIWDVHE
# T5 sequence (P19793 227-458 partner limits assumed): T2 sequence (P19793 227-458 partner limits assumed)
# Procedure: as §3, §4, §5
# CV-1 cells = test: Cytotoxicity in transfected CV-1 cells; details: T0901317 100 nM; Clotrimazole, S883417, S100250 10 μM; approximately 40 hours
# Procedure: as §3
inhibition of constitutive activation by the LXRα-RXR ligand binding domain (UASGx4 TK-Luc) [2],repression of LXRα activity (LXRα),less effective than Clotrimazole in repressing LXRα (LXRα),repression of LXRβ activity (LXRβ),less effective than Clotrimazole in repressing LXRβ (LXRβ),SMILES,LXRα induction of SRE reporter activity ([1]; LXRα co-transfected (3-fold increase)),LXRβ induction of SRE reporter activity ([1]; LXRβ co-expression (almost 2-fold increase)),activity of reporter containing mutated SRE ([1]; SREm reporter),repression of SRE reporter ([1]; absence of LXR) [%],"antagonism of constitutive activation mediated by LXR (hLXRα activity, LXREx3 TK-Luc) (human LXRα)",inhibition of LXR-coactivator association [3],cytotoxicity (CV-1 cells)
,,,,,"C[C@H](CCCC(C)(C)O)[C@H]1CC[C@H]2[C@@H]3CC=C4C[C@@H](O)CC[C@]4(C)[C@H]3CC[C@]12C [25-OH cholesterol, 25-hydroxycholesterol]",prevented this induction,prevented this induction,no significant effects,50,,,
inhibit constitutive activation,repressed,approximately 50%,repressed,approximately 50%,c1ccc(-c2cncn2C(c2ccccc2)(c2ccccc2)c2ccccc2)cc1 [S100250],,,,,antagonize the constitutive activation mediated by LXR,inhibition of LXR-coactivator association,No cytotoxicity
inhibit constitutive activation,repressed,approximately 50%,repressed,approximately 50%,Cl.FC(F)(F)c1cccc(C(c2ccccc2)(c2ccccc2)n2ccnc2)c1 [S883417],,,,,antagonize the constitutive activation mediated by LXR,inhibition of LXR-coactivator association,No cytotoxicity
